{"source": "patent US20240165280A1", "about": "“METHODS FOR TREATMENT OF CANCERS” (Fusion Pharmaceuticals Inc., priority 2021, published 2024)", "key": {"HT-29 xenograft tumors": {"test_system": "HT-29 xenograft tumors", "assay": "Therapy study of [^177Lu]-3BP-227 and [^225Ac]-3BP-227 in CD-1 Nude mice bearing HT-29 xenograft tumors", "assay_type": "in vivo", "settings": "for tumor growth inhibition relative to controls: single i.v. dose 4.5 mCi per mouse (8,325 MBq/kg), HT-29 xenografts, monitored 34 days", "procedure": "(§1) For therapeutic efficacy studies, single doses of 3,885-8,325 MBq/kg of [^177Lu]-3BP-227 (2,100-4,500 μCO or 1.85-5.55 MBq/kg of [^225Ac]-3BP-227 (1-3 μCO were administered to animals bearing HT29 xenografts (average tumor volume=212±46 mm^3), and tumor growth was monitored for 77 days. Mice in the control group were administered vehicle alone (10% ethanol in PBS). Study endpoints included tumor volume measurement and/or impact to animal health status.\nA therapy efficacy study of [^177Lu]-3BP-227 and [^225Ac]-3BP-227 was conducted in mice comprising the following: • 1. 30 CD-1 Nude mice (5-6 week-old females; Charles River Laboratories) bearing subcutaneous HT-29 (ATCC #HTB-38; colorectal adenocarcinoma) tumor xenografts distributed amongst 5 groups (n=6). There were two groups each treated with [^177Lu]-3BP-227 or [^225Ac]-3BP-227 and 1 control group (below). • 2. Target dose of radioactivity was 2.1 or 4.5 mCi of [^177Lu]-3BP-227 per mouse, or 1 or 3 μCi of [^225Ac]-3BP-227 per mouse, for radiotherapy groups. • 3. Mice in the control group were administered vehicle alone (10% ethanol in PBS). • 4. For all groups, tumor size and mouse weight were monitored for 34-77 days. Relative tumor volume, relative mouse weight, and tumor regression relative to control were also calculated.\nPerform an in vivo therapy study to determine the efficacy of [^177Lu]-3BP-227 and [^225Ac]-3BP-227, for the treatment of subcutaneous HT-29 xenograft tumors in nude mice.\nGroups of CD-1 Nude female mice (five groups; n=6 each, 30 total) will be administered radiolabelled test articles via intravenous injection once.\n[^177Lu]-3BP-227 will be dissolved in PBS containing 10% ethanol and prepared at a concentration of about 13 mCi/mL and about 25 mCi/mL. [^177Lu]-3BP-227 compounds would be administered (in 200 μL) at a dose of 2.1 mCi (about 13 mCi/mL stock) or 4.5 mCi (about 25 mCi/mL stock) to two groups of animals (n=12 total). [^225Ac]-3BP-227 will be dissolved in PBS containing 10% ethanol and prepared at a concentration of 5 μCi/mL and 15 μCi/mL. [^225Ac]-3BP-227 compounds will be administered (in 200 μL) at a dose of 1 μCi (5 μCi/ml stock) or 3 μCi (15 μCi/mL stock) to two groups of animals (n=12 total). […] The length (L) and width (W) of the tumor will be measured three times a week up to day 28, and the tumor volume will be calculated as per Section 13, Data Calculations and Statistical Analysis. […]\n1. Tumor volume is calculated according to the formula: TV=(L×W^2)×0.52, where L is the longest diameter (length) of the tumor and W is the shortest diameter (width) of the tumor. Tumor volume at day n is expressed as relative tumor volume (RTV) according to the following formula: RTV=TVn/TV0, where TVn is the tumor volume at day n, and TV0 is the tumor volume at day 0. […]"}, "[1]": {"assay": "Tolerability (mouse weight, health status) in the therapy study", "assay_type": "in vivo, CD-1 Nude mice", "procedure": "as §1\nA therapy efficacy study of [^177Lu]-3BP-227 and [^225Ac]-3BP-227 was conducted in mice comprising the following: • 1. […] Target dose of radioactivity was 2.1 or 4.5 mCi of [^177Lu]-3BP-227 per mouse, or 1 or 3 μCi of [^225Ac]-3BP-227 per mouse, for radiotherapy groups. • 3. […] For all groups, tumor size and mouse weight were monitored for 34-77 days. Relative tumor volume, relative mouse weight, and tumor regression relative to control were also calculated.\n[^177Lu]-3BP-227 will be dissolved in PBS containing 10% ethanol and prepared at a concentration of about 13 mCi/mL and about 25 mCi/mL. […] The length (L) and width (W) of the tumor will be measured three times a week up to day 28, and the tumor volume will be calculated as per Section 13, Data Calculations and Statistical Analysis. […]"}, "HT-29 xenografts [2]": {"test_system": "HT-29 xenografts", "assay": "Earlier [^177Lu]-3BP-227 therapy study (Study 1), HT-29 xenografts in nude mice", "assay_type": "in vivo"}, "HT-29 xenografts [3]": {"test_system": "HT-29 xenografts", "assay": "Earlier [^177Lu]-3BP-227 therapy study (Study 2), HT-29 xenografts", "assay_type": "in vivo, nude mice", "settings": "4.5 mCi per mouse, tumor volume about 450 mm^3 at injection"}, "[4]": {"test_system": "NTSR1-expressing HT-29 xenograft tumors", "assay": "Uptake and persistence in NTSR1-expressing HT-29 xenograft tumors", "assay_type": "in vivo", "settings": "NTSR1-expressing HT-29 xenograft tumors in Nude mice", "from_the_text": "(§2) The compounds to be evaluated are [^177Lu]-3BP-227 and [^225Ac]-3BP-227, which are the ^177Lu and ^225Ac radiolabelled versions, respectively, of the compound of Formula I (also referred as 3BP-227). NTSR1 is overexpressed in several types of cancer, e.g., pancreatic ductal adenocarcinoma (PDAC), Ewing's sarcoma and prostate cancer, but it is rarely expressed in normal tissues."}, "293 tumor xenografts": {"test_system": "293 tumor xenografts", "assay": "Uptake into 293 tumor xenografts, which do not express NTSR1", "assay_type": "in vivo", "settings": "293 tumor xenografts (no NTSR1 expression)", "from_the_text": "as §2"}, "[5]": {"assay": "Acute toxicity in mice with [^177Lu]-3BP-227 therapy (earlier studies)", "assay_type": "in vivo", "settings": "earlier [^177Lu]-3BP-227 therapy studies in mice"}}, "note": "“Also recorded” adds a separate entry of the source."}
{"molecule": "COc1cccc(OC)c1-c1cc(C(=O)NC2(C(=O)O)C3CC4CC(C3)CC2C4)nn1-c1ccc(C(=O)N(C)CCCN(C)CCCN(C)C(=O)CN2CCN(CC(=O)[O-])CCN(CC(=O)[O-])CCN(CC(=O)[O-])CC2)cc1C(C)C.[177Lu+3]", "note": "(stereo not shown) [[^177Lu]-3BP-227]", "values": [{"measurement": "frequency of significant tumor regrowth", "setting": "HT-29 xenograft tumors; 4.5 mCi [^177Lu]-3BP-227 versus 1 μCi [^225Ac]-3BP-227 group", "result": "significant tumor regrowth was more frequent"}, {"measurement": "duration of tumor growth inhibition relative to controls", "setting": "HT-29 xenograft tumors; 4.5 mCi group, whole monitoring period", "result": 34, "unit": "days"}, {"measurement": "tumor growth inhibition relative to controls", "setting": "HT-29 xenograft tumors", "result": "inhibition in the growth of tumors; also recorded: significant and durable tumor growth inhibition"}, {"measurement": "tumor growth inhibition relative to controls", "setting": "HT-29 xenograft tumors; listed as [^177Lu]3BP-227", "result": "efficacious at suppressing tumor growth"}, {"measurement": "weight gain compared with vehicle control", "setting": "[1]; 2.1 and 4.5 mCi groups, 34 days", "result": "indistinguishable weight gain"}, {"measurement": "treatment-related toxicities", "setting": "[1]; all dose groups of the studies", "result": "no treatment-related toxicities observed"}, {"measurement": "inhibition of tumor growth", "setting": "HT-29 xenografts [2]; about 2.1 mCi per mouse", "result": "somewhat inhibited tumor growth"}, {"measurement": "suppression of tumor growth", "setting": "HT-29 xenografts [2]; about 4.5 mCi per mouse, tumor volume about 200 mm^3 at injection", "result": "effective as a therapy for suppressing tumor growth"}, {"measurement": "duration of tumor growth suppression", "setting": "HT-29 xenografts [2]; particularly evident at about 4.5 mCi per mouse", "result": "at least 60 days"}, {"measurement": "suppression of HT-29 tumor growth", "setting": "HT-29 xenografts [3]", "result": "not efficacious at suppressing HT-29 tumor growth"}, {"measurement": "tumor uptake and persistence", "setting": "[4]", "result": "good uptake and persistence"}, {"measurement": "tumor uptake", "setting": "293 tumor xenografts", "result": "minimal uptake"}, {"measurement": "acute toxicity", "setting": "[5]", "result": "no observed acute toxicity"}]}
